We go through three compounds from US20200282009A1, “METHODS OF TREATING DISEASES ASSOCIATED WITH VASCULAR SMOOTH MUSCLE CELL PROLIFERATION” (BioLineRx Ltd., priority 2017, published 2020).

Common to all, as to type: cell-based, human
Data set [1] deals with SK-N-BE(2) cells. The data set is described as follows: Soft agar colony assay. As to conditions: CXCL12 100 ng/ml, 14 days. Here is the method: An agar base layer was prepared as follows: 45 mL RPMI plus 12% FCS was mixed with 15 mL RPMI 32 plus 12% FCS and 15 mL 2.5% agar in double-distilled water. The tumor cells were suspended in RPMI plus 10% FCS. Cell suspension was mixed in a ratio of 1:3 with the agar base solution. This mixture was then plated on top of a preformed solid agar base. CXCL12 (100 ng/mL) or BL-8040 (20 μM) or anti-CXCR4 (1 μg/ml) were added to the mixture. Fourteen days later, the number of colonies was counted in 10 different fields.

Data set [2] deals with SK-N-BE(2) cells. The data set is described as follows: Cell proliferation assay with CXCL12. Here is the method: (§1) Cells were seeded at 2×10^4 cells/1 ml per well into a 24-well plate in medium supplemented with 0.1% FCS with or without various concentrations of CXCL12 (PeproTech EC). On days 2, 4 and 7, cells were harvested, stained with propidium iodide (PI, Sigma), and the number of viable cells was determined using FACS analysis.

In a further data set the test system is Shy-SY5Y cells. The data set is described as follows: Cell proliferation assay with CXCL12. The conditions noted are these: CXCL12 500 ng/ml. The method, then:
as §1

Data set [3] has as its system BCL-2 and CCND1 in SK-N-BE(2) cells. The data set is described as follows: qPCR of target genes after miR transfection. The method, then: cDNA was synthesized from 0.5-1 μg total RNA using the Quanta Biosciences qScript™ cDNA Synthesis Kit (95047-100) for mRNA analysis, and using the qScript™ microRNA cDNA Synthesis Kit (95107-100) for miRNAs analysis. Quantiative PCR (qPCR) of miRNAs and mRNA was performed using the CFX384, C1000 touch thermal cycler (Bio-Rad) and a SYBR Green PCR Kit: Quanta Cat. #84018 and #84071, respectively. The fold expression and statistical significance were calculated using the 2-ΔΔ Ct method. All experiments were performed in triplicate.
Transfections were performed using Lipofectamine 2000 transfection reagent (Invitrogen) according to the manufacturer's protocol. Plasmids were purchased from Dharmacon. MiR-15a: miRIDIAN microRNA hsa-miR-15a-5p mimic. MiR-16-1: miRIDIAN microRNA hsa-miR-16-5p mimic. Negative control miR: miRIDIAN microRNA inhibitor negative control. AntagomiR-15a: miRIDIAN microRNA hsa-miR-15a-5p hairpin inhibitor. AntagomiR-16-1: miRIDIAN microRNA hsa-miR-16-5p hairpin inhibitor. AntagomiR negative control: miRIDIAN microRNA hairpin inhibitor negative control 1. All miRNA-mimics and antagomiRs were transfected at 50 nM or 100 nM. To determine the efficiency of transfection, at 48 hours post-transfection, the cells were analyzed for RNA.
Background: In qPCR the cycle at which signal appears reflects the starting amount.

The subject of another data set is SK-N-BE(2)-CXCR4 cells. The data set is described as follows: Cell survival assay (PI staining, FACS). As to conditions: SK-N-BE(2)-CXCR4 compared to native cell line; 0-10 μM, 24 hours. Here is the method: A total of 1×10^5 cells/mL were cultured in 24-well plates with […] RPMI 1640 medium supplemented with 10% FCS. 24 hours later, the medium was changed to RPMI 1640 supplemented with either 1% FCS, with BL-8040 or AMD3100 or ABT199. Then 24 hours later, the cells were harvested, washed, and stained with PI (Sigma). The number of live cells was counted and analyzed using FACS analysis.
In order to stably overexpress CXCR4, SK-N-BE(2) cells were transduced with the lentiviral bicistronic vector harboring a CXCR4 expression cassette. This was done using a three-plasmid system: pHR′-CMVCXCR4-IRES-GFP-WPRE; envelope coding plasmid VSV-G and a packaging construct CMVDR8.91 according to previously published protocol (23). For transduction of SK-N-BE(2) cells, 1 ml of viral supernatant was used, which is equivalent to an m.o.i. of ˜9.

On to “CXCL12: the ligand of CXCR4 (PeproTech EC)”, for which the “colony formation with CXCL12” value in the data set with SK-N-BE(2) cells [1] was “high colony formation ability”. Also, the “proliferation with CXCL12” value was “no response” in the data set on SK-N-BE(2) cells [2] and “increased proliferation” in the data set with Shy-SY5Y cells.

Take “miR-16-1: miRIDIAN microRNA hsa-miR-16-5p mimic (guide TAGCAGCACGTAAATATTGGCG; mimic duplex; passenger strand missing)”: the “level of both target genes (BCL-2 and CCND1) after transfection” value in data set [3] was “reduction”. For the compound `CC1(C)CCC(CN2CCN(c3ccc(C(=O)NS(=O)(=O)c4ccc(NCC5CCOCC5)c([N+](=O)[O-])c4)c(Oc4cnc5[nH]ccc5c4)c3)CC2)=C(c2ccc(Cl)cc2)C1` [ABT-199, reference compound], the “resistance to the BCL-2 inhibitor (viability)” value in the data set with SK-N-BE(2)-CXCR4 cells is on record as “high resistance”.
